Source: US9494594B2, “Method of determining administration effect in cancer chemotherapy with S-1” (National University Corporation Chiba University, priority 2012, dated 2016)

Test system: shDCN cell line and Mock cell line of anticancer drug-resistant cell lines Sa-3R and KB-R
Assay: 5-FU sensitivity test, MTS cell survival assay
Assay type: cell-based
Settings: 72 hours incubation, shDCN vs Mock cell line
Method: Next, the shDCN cell line and the Mock cell line were cultured in the presence of an anticancer drug, and a change in the degree of resistance to the anticancer drug by the suppressed expression of DCN was verified by measuring a change in cell growth ability. 5-FU was used as the anticancer drug.
The shDCN cell line and the Mock cell line were each seeded to a 96-well plate at a density of 2×10^3 cells/100 μl of medium/well, and simultaneously mixed with 10 μl of a medium supplemented with 5-FU. The concentration of 5-FU was adjusted so that the final concentration was 1 μM to 1×10^4 μM. After that, the cells were incubated for 72 hours, and a cell survival rate was evaluated by an MTS assay. An MTS solution (product of Promega Corporation) was added at a volume of 10 μl/well, and the cells were incubated for 4 hours. After that, counting was performed with a plate reader at a wavelength of 490 nm. A 50% survival concentration (IC50) was determined based on the results of, the MTS assay.

O=c1[nH]cc(F)c(=O)[nH]1 [5-FU, 5-fluorouracil]
IC50 value of shDCN cell line relative to Mock cell line (increase in sensitivity to 5-FU): about 10 times lower
